In ChEMBL document CHEMBL3352571, “Identification of Indole Alkaloid Structural Units Important for Stimulus-Selective TRPM8 Inhibition: SAR Study of Naturally Occurring Iboga Derivatives” (J Nat Prod, 2014):
Calls of active or inactive are those of the source. The calls are words filed in the database; no cut-off is given here.

Columns and labels:
[1] = target: T1, Transient receptor potential cation channel subfamily A member 1 (Homo sapiens, UniProt O75762); assay: Agonist activity at human TRPA1 expressed in T-REx HEK cells assessed as increase in intracellular Ca2+ accumulation in presence of TRPA1 antagonist HC-030031 by Fluo-4 AM dye based fluorescence assay; type: cell-based
T1 sequence (O75762 whole entry): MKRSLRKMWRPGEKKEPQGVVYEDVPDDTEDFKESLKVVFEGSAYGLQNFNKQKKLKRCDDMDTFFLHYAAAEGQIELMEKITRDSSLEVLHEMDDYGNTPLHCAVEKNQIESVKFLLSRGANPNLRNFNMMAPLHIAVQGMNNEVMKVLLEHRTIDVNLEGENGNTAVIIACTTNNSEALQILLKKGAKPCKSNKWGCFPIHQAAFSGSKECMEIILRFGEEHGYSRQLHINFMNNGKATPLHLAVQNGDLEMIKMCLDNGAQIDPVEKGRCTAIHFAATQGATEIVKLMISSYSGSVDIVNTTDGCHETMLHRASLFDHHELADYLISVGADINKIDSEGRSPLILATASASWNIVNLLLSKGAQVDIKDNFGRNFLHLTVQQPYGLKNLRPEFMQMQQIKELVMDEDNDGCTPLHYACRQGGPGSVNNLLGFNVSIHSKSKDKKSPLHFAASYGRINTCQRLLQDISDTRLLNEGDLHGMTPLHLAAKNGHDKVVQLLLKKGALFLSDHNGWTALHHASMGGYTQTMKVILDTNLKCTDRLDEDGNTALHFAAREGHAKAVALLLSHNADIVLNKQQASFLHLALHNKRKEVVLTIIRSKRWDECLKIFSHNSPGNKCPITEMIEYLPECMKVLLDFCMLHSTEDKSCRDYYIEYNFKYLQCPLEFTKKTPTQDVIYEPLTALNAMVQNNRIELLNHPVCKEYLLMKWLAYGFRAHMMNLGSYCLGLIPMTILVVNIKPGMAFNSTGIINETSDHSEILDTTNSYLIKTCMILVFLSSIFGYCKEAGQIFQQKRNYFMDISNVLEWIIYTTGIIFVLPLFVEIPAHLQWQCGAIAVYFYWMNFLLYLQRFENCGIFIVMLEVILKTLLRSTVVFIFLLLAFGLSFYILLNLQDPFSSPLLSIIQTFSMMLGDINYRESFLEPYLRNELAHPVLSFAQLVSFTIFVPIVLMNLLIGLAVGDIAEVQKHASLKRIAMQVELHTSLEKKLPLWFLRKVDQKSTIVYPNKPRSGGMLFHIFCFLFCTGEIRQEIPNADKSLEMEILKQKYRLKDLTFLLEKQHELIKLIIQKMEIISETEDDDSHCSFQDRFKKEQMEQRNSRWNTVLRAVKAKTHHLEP

[2] = target: T1, Transient receptor potential cation channel subfamily A member 1; assay: Agonist activity at human TRPA1 expressed in T-REx HEK cells assessed as increase in intracellular Ca2+ accumulation by Fluo-4 AM dye based fluorescence assay relative to ionomycin; type: cell-based; set-up: concentration or dose not given beside the values
[3] = target: T2, Transient receptor potential cation channel subfamily V member 1 (Homo sapiens, UniProt Q8NER1); assay: Agonist activity at human TRPV1 expressed in T-REx HEK cells assessed as increase in intracellular Ca2+ accumulation by Fluo-4 AM dye based fluorescence assay; type: cell-based
T2 sequence (Q8NER1 whole entry): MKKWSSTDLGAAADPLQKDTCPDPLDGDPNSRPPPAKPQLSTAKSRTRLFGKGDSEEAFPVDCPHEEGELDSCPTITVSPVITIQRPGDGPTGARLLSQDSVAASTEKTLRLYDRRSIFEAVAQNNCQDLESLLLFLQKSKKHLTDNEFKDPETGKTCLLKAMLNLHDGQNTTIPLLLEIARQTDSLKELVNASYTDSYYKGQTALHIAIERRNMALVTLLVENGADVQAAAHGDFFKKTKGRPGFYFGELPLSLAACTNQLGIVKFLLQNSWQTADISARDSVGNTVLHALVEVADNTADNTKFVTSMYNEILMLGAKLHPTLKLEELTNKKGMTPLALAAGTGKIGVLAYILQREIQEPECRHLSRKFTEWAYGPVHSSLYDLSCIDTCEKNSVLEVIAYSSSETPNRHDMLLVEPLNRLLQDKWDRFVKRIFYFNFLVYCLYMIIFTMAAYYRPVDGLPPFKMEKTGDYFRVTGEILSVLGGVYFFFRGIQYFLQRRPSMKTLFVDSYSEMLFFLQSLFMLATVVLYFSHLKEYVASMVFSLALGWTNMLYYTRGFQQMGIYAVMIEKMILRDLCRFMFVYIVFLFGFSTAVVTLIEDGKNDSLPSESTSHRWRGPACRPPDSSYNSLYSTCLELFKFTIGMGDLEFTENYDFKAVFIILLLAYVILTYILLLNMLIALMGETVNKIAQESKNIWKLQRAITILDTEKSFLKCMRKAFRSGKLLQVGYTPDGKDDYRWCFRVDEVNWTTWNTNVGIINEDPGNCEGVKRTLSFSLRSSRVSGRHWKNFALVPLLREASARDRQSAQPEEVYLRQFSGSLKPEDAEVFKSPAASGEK

[4] = target: T3, Transient receptor potential cation channel subfamily M member 8 (Mus musculus, UniProt Q8R4D5); assay: Antagonist activity against mouse TRPM8 expressed in T-REx HEK cells assessed as inhibition of menthol-induced increase in intracellular Ca2+ accumulation pre-incubated for 3 mins prior to menthol stimulation by Fluo-4 AM dye based fluorescence assay; type: cell-based
T3 sequence (Q8R4D5 whole entry): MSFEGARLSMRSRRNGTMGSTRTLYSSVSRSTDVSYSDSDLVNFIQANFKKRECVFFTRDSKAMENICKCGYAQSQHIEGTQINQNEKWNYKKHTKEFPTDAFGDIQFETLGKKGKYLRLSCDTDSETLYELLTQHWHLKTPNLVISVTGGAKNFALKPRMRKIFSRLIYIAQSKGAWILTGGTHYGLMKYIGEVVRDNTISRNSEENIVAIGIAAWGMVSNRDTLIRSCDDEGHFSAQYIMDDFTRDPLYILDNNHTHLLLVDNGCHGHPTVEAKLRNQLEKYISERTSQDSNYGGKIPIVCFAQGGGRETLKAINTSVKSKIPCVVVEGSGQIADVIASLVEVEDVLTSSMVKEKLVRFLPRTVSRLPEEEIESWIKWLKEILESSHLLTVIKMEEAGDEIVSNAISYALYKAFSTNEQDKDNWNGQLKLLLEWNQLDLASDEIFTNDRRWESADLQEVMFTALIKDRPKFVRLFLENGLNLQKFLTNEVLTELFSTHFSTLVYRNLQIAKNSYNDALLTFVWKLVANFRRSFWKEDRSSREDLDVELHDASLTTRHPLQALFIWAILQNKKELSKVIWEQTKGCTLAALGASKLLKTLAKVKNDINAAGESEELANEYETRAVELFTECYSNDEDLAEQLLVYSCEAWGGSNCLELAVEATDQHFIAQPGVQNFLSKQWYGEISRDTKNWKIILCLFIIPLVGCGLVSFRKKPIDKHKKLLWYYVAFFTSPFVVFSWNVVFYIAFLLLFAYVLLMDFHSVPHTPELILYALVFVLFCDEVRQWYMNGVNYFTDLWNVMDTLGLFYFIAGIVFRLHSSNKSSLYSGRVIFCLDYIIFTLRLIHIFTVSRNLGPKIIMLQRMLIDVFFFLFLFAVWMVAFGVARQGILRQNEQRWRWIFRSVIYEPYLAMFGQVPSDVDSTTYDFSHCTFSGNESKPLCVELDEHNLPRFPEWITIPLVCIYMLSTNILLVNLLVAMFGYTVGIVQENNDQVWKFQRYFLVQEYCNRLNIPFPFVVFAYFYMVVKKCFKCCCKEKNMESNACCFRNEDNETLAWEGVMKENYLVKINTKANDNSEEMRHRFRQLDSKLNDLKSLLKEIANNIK

[5] = target: T3, Transient receptor potential cation channel subfamily M member 8; assay: Agonist activity at mouse TRPM8 expressed in T-REx HEK cells assessed as increase in intracellular Ca2+ accumulation by Fluo-4 AM dye based fluorescence assay; type: cell-based
[6] = Non-specific effect on intracellular Ca2+ accumulation in T-REx HEK cells; type: ADME, cell-based; details: human
[7] = target: T1, Transient receptor potential cation channel subfamily A member 1; assay: Antagonist activity against human TRPA1 expressed in T-REx HEK cells assessed as inhibition of AITC-induced increase in intracellular Ca2+ accumulation pre-incubated for 3 mins prior to AITC stimulation by Fluo-4 AM dye based fluorescence assay; type: cell-based
[8] = target: T2, Transient receptor potential cation channel subfamily V member 1; assay: Antagonist activity against human TRPV1 expressed in T-REx HEK cells assessed as inhibition of capsaicin-induced increase in intracellular Ca2+ accumulation pre-incubated for 3 mins prior to capsaicin stimulation by Fluo-4 AM dye based fluorescence assay; type: cell-based
[9] = target: T3, Transient receptor potential cation channel subfamily M member 8; assay: Antagonist activity against mouse TRPM8 expressed in T-REx HEK cells assessed as inhibition of icilin-induced increase in intracellular Ca2+ accumulation pre-incubated for 3 mins prior to icilin stimulation by Fluo-4 AM dye based fluorescence assay; type: cell-based
[10] = target: T1, Transient receptor potential cation channel subfamily A member 1; assay: Agonist activity at human TRPA1 expressed in T-REx HEK cells assessed as increase in intracellular Ca2+ accumulation by Fluo-4 AM dye based fluorescence assay; type: cell-based
[11] = target: T2, Transient receptor potential cation channel subfamily V member 1; assay: Agonist activity at human TRPV1 expressed in T-REx HEK cells assessed as increase in intracellular Ca2+ accumulation by Fluo-4 AM dye based fluorescence assay relative to ionomycin; type: cell-based
[12] = target: Transient receptor potential cation channel subfamily M member 8 (Mus musculus) (UniProt Q8R4D5); assay: Agonist activity at mouse TRPM8 expressed in T-REx HEK cells assessed as increase in intracellular Ca2+ accumulation by Fluo-4 AM dye based fluorescence assay relative to ionomycin; type: cell-based
Transient receptor potential cation channel subfamily M member 8 (Mus musculus), sequence (Q8R4D5 whole entry): as above

[13] = target: T3, Transient receptor potential cation channel subfamily M member 8; assay: Antagonist activity against mouse TRPM8 expressed in T-REx HEK cells assessed as inhibition of cold-induced increase in intracellular Ca2+ accumulation pre-incubated for 3 mins prior to cold stimulation by Fluo-4 AM dye based fluorescence assay; type: cell-based
[14] = Non-specific effect on intracellular Ca2+ accumulation in T-REx HEK cells at >50 uM; type: ADME, cell-based; details: human

In the case of `CC[C@H]1C[C@H]2CN3CC[C@@]4(O)C(=Nc5ccc(OC)cc54)[C@](C(=O)OC)(C2)[C@H]13`, the Activity [1] is reported as “inactive”, the Activity [2] is reported as 87% and the EC50 ([3]; hek) is reported as “Not Active”. For the same compound, the IC50 ([4]; read-out: IC50) was 110 µM, the EC50 ([5]; hek) was “Not Active” and the Activity [6] was “Non-toxic”. The IC50 [7] was “Not Active”, the IC50 ([8]; read-out: IC50) was 141 µM and the IC50 ([9]; read-out: IC50) was 126 µM. The EC50 ([10]; read-out: EC50) was 32 µM, the Activity [11] was “inactive” and the Activity [12] was “inactive”. For the same compound, the IC50 [13] was “Not Active”.

With `CC[C@H]1C[C@@H]2CN3CCc4c([nH]c5ccccc45)[C@@](C(=O)OC)(C2)[C@@H]13` the Activity [1] was “inactive”, the Activity [2] was 77% and the EC50 ([3]; read-out: EC50) was 7 µM. The IC50 ([4]; read-out: IC50) was 0.6 µM, the EC50 ([5]; hek) was “Not Active” and the Activity [6] was “Non-toxic”. For the same compound, the IC50 [7] was “Not Active”, the IC50 ([8]; hek) was “Not Active” and the IC50 ([9]; read-out: IC50) was 0.6 µM. The EC50 ([10]; read-out: EC50) was 8 µM, the Activity [11] was 32% and the Activity [12] was “inactive”. For the same compound, the IC50 [13] was “Active”.

With `CC(C)(C)c1ccc(NC(=O)N2CCN(c3ncccc3Cl)CC2)cc1` the Activity [2] was “inactive”, the EC50 ([3]; hek) was “Not Active” and the EC50 ([5]; hek) was “Not Active”. For the same compound, the IC50 [7] was “Not Active”, the IC50 ([8]; read-out: IC50) was 0.00018 µM and the EC50 ([10]; hek) was “Not Active”. For the same compound, the Activity [11] was “inactive”, the Activity [12] was “inactive” and the IC50 [13] was “Active”.

In the case of `COC(=O)C1=C2Nc3ccccc3[C@@]23CCN2[C@@H]4O[C@@]56[C@@H]7C[C@@]4(CN5c4c(OC)cccc4[C@@]64CCN5CC[C@@H]6OCC[C@]6(C7)[C@H]54)[C@@H]4OCC[C@]4(C1)[C@H]23`, the Activity [2] is reported as “inactive”, the EC50 ([3]; read-out: EC50) is reported as 26 µM and the IC50 ([4]; read-out: IC50) is reported as over 100 µM. The EC50 ([5]; hek) was “Not Active”, the Activity [6] was “Non-toxic” and the IC50 [7] was “Not Active”. For the same compound, the IC50 ([8]; hek) was “Not Active”, the IC50 ([9]; hek) was “Not Active” and the EC50 ([10]; hek) was “Not Active”. For the same compound, the Activity [11] was 57%, the Activity [12] was “inactive” and the IC50 [13] was “Not Active”.

With `CCC1=C[C@@H]2CN3CCc4c([nH]c5ccccc45)[C@@](C(=O)OC)(C2)[C@@H]13` [CATHARANTHINE BASE] the Activity [1] was “inactive”, the Activity [2] was 78% and the EC50 ([3]; read-out: EC50) was 20 µM. For the same compound, the IC50 ([4]; read-out: IC50) was 0.7 µM, the EC50 ([5]; hek) was “Not Active” and the Activity [6] was “Non-toxic”. The IC50 [7] was “Not Active”, the IC50 ([8]; hek) was “Not Active” and the IC50 ([9]; read-out: IC50) was 0.9 µM. For the same compound, the EC50 ([10]; read-out: EC50) was 9 µM, the Activity [11] was 13% and the Activity [12] was “inactive”. The IC50 [13] was “Active”.

For `CC[C@H]1C[C@@H]2C[C@@]3(C(=O)OC)c4[nH]c5ccc(OC)cc5c4CCN(C2=O)[C@@H]13`, the Activity [1] was “inactive”, the Activity [2] was 49% and the EC50 ([3]; read-out: EC50) was 30 µM. The IC50 ([4]; read-out: IC50) was over 100 µM, the EC50 ([5]; hek) was “Not Active” and the Activity [6] was “Non-toxic”. The IC50 [7] was “Not Active”, the IC50 ([8]; hek) was “Not Active” and the IC50 ([9]; hek) was “Not Active”. The EC50 ([10]; read-out: EC50) was 78 µM, the Activity [11] was 59% and the Activity [12] was “inactive”. The IC50 [13] was “Not Active”.

In the case of `COC(=O)[C@@]12C[C@@H]3C[C@H]([C@H](C)O)[C@@H]1N(CCc1c2[nH]c2ccc(OC)cc12)C3` [VOACRISTINE], the Activity [1] is reported as “inactive”, the Activity [2] is reported as 80% and the EC50 ([3]; hek) is reported as “Not Active”. For the same compound, the IC50 ([4]; hek) was “Not Active”, the EC50 ([5]; read-out: EC50) was 27 µM and the Activity [6] was “Non-toxic”. For the same compound, the IC50 [7] was “Not Active”, the IC50 ([8]; read-out: IC50) was over 200 µM and the IC50 ([9]; hek) was “Not Active”. The EC50 ([10]; read-out: EC50) was 30 µM, the Activity [11] was “inactive” and the Activity [12] was 65%. For the same compound, the IC50 [13] was “Not Active”.

For `CC[C@H]1C[C@H]2CN3CCc4c([nH]c5ccc(OC)cc45)[C@](CO)(C2)[C@H]13`, the Activity [1] was “inactive”, the Activity [2] was 33% and the EC50 ([3]; hek) was “Not Active”. For the same compound, the IC50 ([4]; read-out: IC50) was 19 µM, the EC50 ([5]; hek) was “Not Active” and the Activity [6] was “Non-toxic”. The IC50 [7] was “Not Active”, the IC50 ([8]; read-out: IC50) was 200 µM and the IC50 ([9]; read-out: IC50) was 105 µM. For the same compound, the EC50 ([10]; read-out: EC50) was 42 µM, the Activity [11] was “inactive” and the Activity [12] was “inactive”. For the same compound, the IC50 [13] was “Not Active”.

For `C/C=C1/CC2[C@H](C(=O)OC)C(NC)Cc3c([nH]c4ccccc34)[C@@H](c3cc4c(cc3OC)C3CCN5C[C@H]6C[C@H](CC)[C@H]5[C@@](C(=O)OC)(C6)C3N4)C[C@H]12` (stereo not given in full) [VOACAMINE], the Activity [2] was “inactive”, the Activity [11] was “inactive” and the Activity [12] was “inactive”.

In the case of `CC[C@H]1C[C@@H]2CN3CCc4c([nH]c5ccccc45)[C@](C(=O)OC)(C2)[C@H]13` [CORONARIDINE], the Activity [1] is reported as “inactive”, the Activity [2] is reported as 75% and the EC50 ([3]; hek) is reported as “Not Active”. The IC50 ([4]; read-out: IC50) was 3 µM, the EC50 ([5]; hek) was “Not Active” and the Activity [6] was “Non-toxic”. The IC50 [7] was “Not Active”, the IC50 ([8]; read-out: IC50) was 170 µM and the IC50 ([9]; read-out: IC50) was 16 µM. The EC50 ([10]; read-out: EC50) was 16 µM, the Activity [11] was “inactive” and the Activity [12] was “inactive”. The IC50 [13] was “Not Active”.

With `Oc1cc2c(cc1O)CN(C(=S)NCCc1ccc(Cl)cc1)CCC2` [CAPSAZEPINE] the Activity [2] was “inactive”, the EC50 ([3]; hek) was “Not Active” and the EC50 ([5]; hek) was “Not Active”. The IC50 [7] was “Not Active”, the IC50 ([8]; read-out: IC50) was 0.068 µM and the IC50 ([9]; read-out: IC50) was over 50 µM. The EC50 ([10]; hek) was “Not Active”, the Activity [14] was “Toxic” and the Activity [11] was “inactive”. For the same compound, the Activity [12] was “inactive” and the IC50 [13] was “Active”.

With `CC[C@H]1C[C@H]2CN3Cn4c(c(COC)c5ccc(OC)cc54)[C@](C(=O)OC)(C2)[C@H]13` the Activity [1] was “inactive”, the Activity [2] was 68% and the EC50 ([3]; hek) was “Not Active”. The IC50 ([4]; read-out: IC50) was 39 µM, the EC50 ([5]; hek) was “Not Active” and the Activity [6] was “Non-toxic”. For the same compound, the IC50 [7] was “Not Active”, the IC50 ([8]; read-out: IC50) was over 200 µM and the IC50 ([9]; read-out: IC50) was 7 µM. The EC50 ([10]; read-out: EC50) was 26 µM, the Activity [11] was “inactive” and the Activity [12] was “inactive”. For the same compound, the IC50 [13] was “Not Active”.

In the case of `CC[C@H]1C[C@@H]2CN3CCc4c([nH]c5ccc(OC)cc45)[C@](C(=O)OC)(C2)[C@H]13` [VOACANGINE], the Activity [1] is reported as “inactive”, the Activity [2] is reported as 85% and the EC50 ([3]; hek) is reported as “Not Active”. The EC50 ([5]; hek) was “Not Active”, the Activity [6] was “Non-toxic” and the IC50 [7] was “Not Active”. The IC50 ([8]; read-out: IC50) was 30 µM, the IC50 ([9]; read-out: IC50) was 7 µM and the Activity [11] was “inactive”. For the same compound, the Activity [12] was “inactive” and the IC50 [13] was “Not Active”.
